{"source": "patent US10596150B2", "about": "“Antifungal agents” (F2G LIMITED, priority 2014, dated 2020)", "key": {"[1]": {"system": "A. fumigatus strain A1163", "experiment": "Murine survival model of Aspergillus fumigatus infection (survival, kidney burden, serum galactomannan)", "format": "in vivo, male CD-1 mice", "settings": "for serum galactomannan indices: FIG. 6; for End of study tissue burden (kidney): surviving animals; for survival at end of study: therapy from 24 h post infection for 8 days", "protocol": "Murine survival models are frequently used to assess the efficacy of antifungal drugs against Aspergillus. The models used in the development of Example 1 were carried out at Euprotec Ltd (Manchester) a contract research organisation (CRO) with extensive experience in the evaluation of antifungal drugs. The typical model involves the use of groups of 6-10 male CD-1 mice per treatment group. Mice are immunosuppressed with 200 mg/kg cyclophosphamide injected intraperitoneal 3 days prior to infection. A. fumigatus strain A1163 is cultured on Sabourauds agar for 4-6 days at 35° C. Spores are harvested in phosphate buffered saline (PBS)/Tween, the suspension diluted and the number of spores enumerated. Mice are then infected with an intravenous injection of A. fumigatus spores given through the lateral tail vein. The typical inoculum is 6-8×10^4 cfu/mouse and is sufficient to kill all untreated animals by Day 4-6. The animals die of IA and Aspergillus organisms can be detected in many body tissues. Treatment is typically commenced soon after infection but delays of up to 24 h following infection produce a more challenging model. Treatment is continued for 7-9 days. Treatment may be up to 3 times daily using an oral dosing. Following cessation of treatment, animals are observed for 1-2 days, and then sacrificed. Relevant controls treated with oral drug-free vehicle are always included; ideally there should be no survivors in this group. A positive control consisting of an antifungal drug such as Reference Example 10 was used. This compound consistently produces 100% survival at doses of 10 mg/kg b.i.d. dosed by the oral route. Most models are run as temporary neutropenic models where only a single dose of cyclophosphamide is administered.\nThe fungal burden in the kidney can be determined on animals surviving to the end of the study and this can help provide efficacy discrimination between groups where all animals survive. Tissue burdens are carried out by removing the kidneys from animals when they are culled at the end of the study. These are homogenised in saline and plated onto Sabourauds agar and incubated at 35° C. for 72 h. Aspergillus colonies are counted and the amount of aspergillus per gram of kidney calculated. The results are expressed as colony forming units per gramme (cfu/g). […] However, data from studies where tissue burden has been carried out on untreated animals at day 4 or 5 has shown that tissue burdens are typically in excess of 20,000 cfu/g and may exceed 100,000 cfu/g in some studies.\nIn some of the survival studies described below serum samples were collected from surviving mice at the end of the study or on mice that succumbed to infection during the study to examine the effect of Example 1 on galactomannan levels and to see if there was a relationship between galactomannan levels and survival.\nThe galactomannan assays were carried out on serum samples that had been stored frozen at −80° C. Samples were thawed and assayed using a Platelia Aspergillus Ag enzyme-linked immunosorbent assay (ELISA) kit (Biorad). The assay was modified slightly to take into account the small sample volumes available from mice. If assay results were high a repeat test was carried out on a sample diluted in normal mouse serum. The amount of galactomannan in a sample is presented as a galactomannan index. The mean galactomannan index for each group was calculated and is presented graphically against each treatment regimen.\nThe survival study carried assessed the dose response of Example 1. Example 1 was dosed orally to A. fumigatus infected mice at 2 dose levels 10 mg/kg b.i.d. and 3 mg/kg b.i.d. Therapy was initiated at 24 h post infection and therapy continued for 8 days. At the end of the study kidney burdens were measured on surviving animals. In addition serum samples were taken at the end of the study from all surviving animals and from each animal that died during the course of the study. […]"}, "[2]": {"system": "S. aurantiacum", "experiment": "Analogous MIC experiments", "format": "cell-based", "protocol": "(§1) Between 1 and 5 mgs of the compound were accurately weighed out into a sterile Eppendorf tube. The compound was dissolved in DMSO to give a solution containing 5 mg/mL. Tubes were stored at −20° C. until required.\n(§2) On the day of testing thawed solutions were vortex mixed to ensure homogeneity. 30 μL of solution was removed and added to 570 μL of sterile water in a separate sterile Eppendorf. The thoroughly mixed solution was used to prepare a series of doubling dilutions in water, in a deep well plate. Thirteen replicate plates were prepared using a Minitrak by aspirating 20 μL from each well into eleven clear polystyrene 96 well plates.\n(§3) Spores of Aspergillus and Scedosporium were harvested from cultures grown on Sabarauds agar for 5 days, and resuspended in PBS/Tween 80 to approx 1×10^7 cfu/mL. Each organism suspension was diluted in RPMI medium, containing 2% glucose and 0.135 M MOPS buffer (pH 7.0) to 0.5-2×10^4 cfu/mL. 80 μL of an organism suspension was added to each well of the plate containing drug dilutions.\n(§4) This produced MIC plates with a drug range 50-0.05 mg/L and organism inocula of 1-2×10^4 cfu/mL. All plates were incubated for 24-48 h at 35° C. Growth was assessed by monitoring the optical density at 485 nm for each well. The MIC of a compound is the lowest drug concentration that inhibits growth of an organism by >80% compared with a drug free control."}, "[3]": {"system": "S. dehoogii", "experiment": "Analogous MIC experiments", "format": "cell-based", "protocol": "as §1, §2, §3, §4"}, "[4]": {"system": "S. boydii", "experiment": "Analogous MIC experiments", "format": "cell-based", "protocol": "as §1, §2, §3, §4"}, "[5]": {"system": "L. prolificans FMR 3569", "experiment": "Lomentospora prolificans FMR 3569 disseminated infection model (survival, tissue burden)", "format": "in vivo, Male OF-1 mice", "settings": "VRC 25 mg/kg p.o. QD; Example 1 20 mg/k p.o. BID; from day 1 after challenge for 9 days"}}}
{"smiles": "Cc1cc(-c2ccccc2)c(C(=O)C(=O)Nc2ccc(N3CCN(c4ncc(F)cn4)CC3)cc2)n1C", "note": "[Example 1, 2-(1,5-dimethyl-3-phenyl-1H-pyrrol-2-yl)-N-(4-(4-(5-fluoropyrimidin-2-yl)piperazin-1-yl)phenyl)-2-oxoacetamide]", "values": [{"measurement": "serum galactomannan indices", "setting": "[1]; 3 mg/kg b.i.d. oral, similar magnitude to untreated animals", "value": "correspondingly high"}, {"measurement": "End of study tissue burden (kidney)", "setting": "[1]; 3 mg/kg b.i.d. oral", "value": 3021, "unit": "cfu/gm"}, {"measurement": "survival at end of study", "setting": "[1]; 3 mg/kg b.i.d. oral", "value": 10, "unit": "%"}, {"measurement": "serum galactomannan indices", "setting": "[1]; 10 mg/kg b.i.d. oral", "value": "very low"}, {"measurement": "End of study tissue burden (kidney)", "setting": "[1]; 10 mg/kg b.i.d. oral", "value": 1114, "unit": "cfu/gm"}, {"measurement": "survival at end of study", "setting": "[1]; 10 mg/kg b.i.d. oral", "value": 100, "unit": "%"}, {"measurement": "antifungal activity against S. aurantiacum", "setting": "[2]", "value": "good antifungal activity"}, {"measurement": "antifungal activity against S. dehoogii", "setting": "[3]", "value": "good antifungal activity"}, {"measurement": "antifungal activity against S. boydii", "setting": "[4]", "value": "good antifungal activity"}, {"measurement": "survival rates compared with the control (FIG. 7)", "setting": "[5]", "value": "improved survival rates"}]}
